“Also recorded” adds a separate entry of the source.
Tests used:
Karpas-299 cells = test: mTOR inhibition: proliferation of Karpas-299 cells over three population doublings; format: cell-based, human; settings: 0.1 to 10,000 ng/ml
Experimental: FIG. 5A provides a graph presenting cell density as a percent control of Karpas-299 cells. […] Cell densities were plotted as the percentage of cells treated with vehicle. […] Cell densities were plotted as the percentage of cells treated with vehicle.
(§1) Cells were plated in drug containing growth medium and followed for three population doublings.

[1] = test system: TEL2-expressing primary Arf−/− mouse pre-B cells; test: mTOR inhibition: proliferation of TEL2-expressing pre-B cells; format: cell-based
Experimental: (§2) FIG. 5A provides a graph presenting cell density as a percent control of Karpas-299 cells. Logarithmically growing Karpas-299 cells were treated for three population doublings with increasing amounts (0.1, 0.3, 1, 3, 10, 30, 100, 300, 1000, 3000, 10,000 ng/ml) of Rapamycin, AZD-8055 or OSI-27. Cell densities were plotted as the percentage of cells treated with vehicle. FIG. 5B provides a graph presenting cell density as a percent control of mouse pre-B cells transduced with MSCV-IRES-GFP (vector) or MSCV-TEL2-IRES-GFP (TEL2) and treated with AZD-8055 or Rapamycin. Cell densities were plotted as the percentage of cells treated with vehicle. […] FIG. 5D provides immunoblots of the same Rapamycin-treated fractions of FIG. 5C probed for the presence of p-mTOR^Ser2448, p-AKT^Ser473, p-AKT^Thr308, p-P70S6K^Thr389, p-S6^Ser235/236, p-4E-BP1^Thr37/46 and for the autophagosome marker LC3B I/II.
as §1

[2] = test system: mTOR signaling in Karpas-299 cells; test: Immunoblots of mTOR target phosphorylation, Ki-67 and LC3B in treated Karpas-299 cells; format: cell-based, human
Experimental: as §2
(§3) For western blot analysis, cells were lysed in 1× lysis buffer (Cell Signaling Technologies). For co-IP experiments, cells were lysed in CHAPS lysis buffer and xenografts in 1× cell signaling lysis buffer. Co-IP was performed with 2 μg antibody whilst rotating at 4° C.

[3] = test system: mTOR signaling in TEL2-expressing Arf−/− mouse pre-B cells; test: Immunoblots of mTOR target phosphorylation, KI-67 and LC3B in AZD-8055-treated TEL2-expressing pre-B cells; format: cell-based
Experimental: (§4) FIG. 5A provides a graph presenting cell density as a percent control of Karpas-299 cells. Logarithmically growing Karpas-299 cells were treated for three population doublings with increasing amounts (0.1, 0.3, 1, 3, 10, 30, 100, 300, 1000, 3000, 10,000 ng/ml) of Rapamycin, AZD-8055 or OSI-27. Cell densities were plotted as the percentage of cells treated with vehicle. FIG. 5B provides a graph presenting cell density as a percent control of mouse pre-B cells transduced with MSCV-IRES-GFP (vector) or MSCV-TEL2-IRES-GFP (TEL2) and treated with AZD-8055 or Rapamycin. Cell densities were plotted as the percentage of cells treated with vehicle. FIG. 5C provides m-TOR IP/immunoblots of lysates of the Rapamycin-treated Karpas-299 cells probed for the presence of Rictor, mSIN1, mLST8 and TEL2. FIG. 5D provides immunoblots of the same Rapamycin-treated fractions of FIG. 5C probed for the presence of p-mTOR^Ser2448, p-AKT^Ser473, p-AKT^Thr308, p-P70S6K^Thr389, p-S6^Ser235/236, p-4E-BP1^Thr37/46 and for the autophagosome marker LC3B I/II.
At 100 ng/ml AZD-8055, the autophagy salvage pathway was activated as detected by the change in the relative amounts of the LC3BI/II proteins.
as §3

mTORC3 = target: T1, mTORC3 (Homo sapiens, UniProt P42345); test: IP-kinase assay, TEL2 IP (mTORC3 alone) with recombinant 4E-BP1; format: biochemical; settings: Karpas-299 TEL2 IP, recombinant 4E-BP1, γ32P-ATP; FKBP12/Rapamycin 37 μg/ml/20 μM; OSI-27 10 μM
T1 construct: endogenous TEL2-expressing Karpas-299 cell lysates immunoprecipitated with mTOR (mTOR IP) or TEL2 (TEL2-IP) antibodies; endogenous in cells; host or cells: Karpas-299
Experimental: (§5) IgG indicates the immunoprecipitation with non-relevant IgG.
(§6) To determine the relative amounts of mTORC 1, 2 and 3, whole cell lysates of Karpas-299 cells were immunoprecipitated with non-relevant IgG, anti-mTOR, anti-TEL2, anti-Raptor, or anti-Rictor antibodies and the IPs were used for western blotting and in vitro kinase assays. […] For in vitro kinase assays, the IPs were incubated with recombinant 4E-BP1 or AKT in the presence of ATP.
(§7) Captured antibody-protein complexes were incubated with recombinant 4E-BP1 (Abcam) or AKT/PKB (Millipore) in the presence of (γ^32P-) ATP.

mTOR = target: T2, mTOR (Homo sapiens, UniProt P42345); test: IP-kinase assay, mTOR IP (mTORC1+mTORC2+mTORC3) with recombinant 4E-BP1; format: biochemical; settings: Karpas-299 mTOR IP, recombinant 4E-BP1, γ32P-ATP; FKBP12/Rapamycin 37 μg/ml/20 μM; OSI-27 10 μM
T2 construct: endogenous TEL2-expressing Karpas-299 cell lysates immunoprecipitated with mTOR (mTOR IP) or TEL2 (TEL2-IP) antibodies; endogenous in cells; host or cells: Karpas-299
Experimental: as §5, §6, §7

[4] = test system: vector-transduced Arf−/− pre-B cells; test: mTOR inhibition: proliferation of vector-transduced pre-B cells; format: cell-based, mouse
Experimental: as §4
To determine if mTORC3 is also insensitive to Rapamycin inhibition in vivo, Karpas-299 cells were treated with increasing amounts of drug for three population doublings. […] This was deduced from the steady relative intensities of LC3BI/II proteins at all Rapamycin concentrations (FIG. 5D). […]

[5] = target: T3, Raptor (human cell lines) (human, UniProt Q8N122 1-1335); test: TEL2 IP / western blot, whole cell lysates of Karpas-299, K562 and OS-17 cells (FIG. 2B)
T3 construct: mTORC1 component
T3 sequence (Q8N122 whole entry): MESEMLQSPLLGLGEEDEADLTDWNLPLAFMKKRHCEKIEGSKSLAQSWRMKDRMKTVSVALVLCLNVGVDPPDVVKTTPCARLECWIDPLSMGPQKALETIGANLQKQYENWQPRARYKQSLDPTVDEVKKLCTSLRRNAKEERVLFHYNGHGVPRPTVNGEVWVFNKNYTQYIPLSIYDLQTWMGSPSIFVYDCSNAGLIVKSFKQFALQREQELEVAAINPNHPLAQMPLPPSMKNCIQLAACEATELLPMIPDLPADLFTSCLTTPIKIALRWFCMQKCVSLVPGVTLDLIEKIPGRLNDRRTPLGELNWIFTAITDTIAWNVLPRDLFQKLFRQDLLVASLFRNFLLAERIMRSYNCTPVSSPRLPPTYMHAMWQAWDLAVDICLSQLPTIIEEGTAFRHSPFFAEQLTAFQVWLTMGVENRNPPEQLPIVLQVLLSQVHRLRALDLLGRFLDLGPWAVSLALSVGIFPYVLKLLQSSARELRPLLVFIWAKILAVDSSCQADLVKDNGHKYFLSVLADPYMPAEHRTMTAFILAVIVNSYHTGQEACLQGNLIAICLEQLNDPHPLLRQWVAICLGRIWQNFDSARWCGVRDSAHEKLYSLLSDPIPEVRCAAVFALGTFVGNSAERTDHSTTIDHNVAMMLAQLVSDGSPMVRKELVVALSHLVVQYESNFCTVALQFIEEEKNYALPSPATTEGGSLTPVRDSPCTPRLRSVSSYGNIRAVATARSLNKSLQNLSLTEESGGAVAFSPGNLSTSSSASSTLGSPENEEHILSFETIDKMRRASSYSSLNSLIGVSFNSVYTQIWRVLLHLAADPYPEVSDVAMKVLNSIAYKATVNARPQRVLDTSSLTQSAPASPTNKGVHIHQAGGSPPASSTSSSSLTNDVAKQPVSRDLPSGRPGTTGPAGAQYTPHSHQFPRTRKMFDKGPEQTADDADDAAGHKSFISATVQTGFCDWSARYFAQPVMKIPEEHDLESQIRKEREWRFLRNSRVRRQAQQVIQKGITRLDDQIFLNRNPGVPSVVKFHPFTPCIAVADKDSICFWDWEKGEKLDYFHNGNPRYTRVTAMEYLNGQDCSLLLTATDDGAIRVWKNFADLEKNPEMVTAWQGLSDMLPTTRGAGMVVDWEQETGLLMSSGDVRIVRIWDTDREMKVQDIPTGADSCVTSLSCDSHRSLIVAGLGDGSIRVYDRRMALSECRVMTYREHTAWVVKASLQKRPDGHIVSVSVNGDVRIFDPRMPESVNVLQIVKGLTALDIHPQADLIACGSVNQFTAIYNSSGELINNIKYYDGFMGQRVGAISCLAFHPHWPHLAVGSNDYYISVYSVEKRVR
Experimental: as §3

SIN1 (human cell lines) = target: T4, SIN1 (human cell lines) (human, UniProt Q9BPZ7 2-522, limits assumed); test: as above
T4 construct: mTORC2 component; also called mSIN1
T4 sequence (Q9BPZ7 2-522 limits assumed): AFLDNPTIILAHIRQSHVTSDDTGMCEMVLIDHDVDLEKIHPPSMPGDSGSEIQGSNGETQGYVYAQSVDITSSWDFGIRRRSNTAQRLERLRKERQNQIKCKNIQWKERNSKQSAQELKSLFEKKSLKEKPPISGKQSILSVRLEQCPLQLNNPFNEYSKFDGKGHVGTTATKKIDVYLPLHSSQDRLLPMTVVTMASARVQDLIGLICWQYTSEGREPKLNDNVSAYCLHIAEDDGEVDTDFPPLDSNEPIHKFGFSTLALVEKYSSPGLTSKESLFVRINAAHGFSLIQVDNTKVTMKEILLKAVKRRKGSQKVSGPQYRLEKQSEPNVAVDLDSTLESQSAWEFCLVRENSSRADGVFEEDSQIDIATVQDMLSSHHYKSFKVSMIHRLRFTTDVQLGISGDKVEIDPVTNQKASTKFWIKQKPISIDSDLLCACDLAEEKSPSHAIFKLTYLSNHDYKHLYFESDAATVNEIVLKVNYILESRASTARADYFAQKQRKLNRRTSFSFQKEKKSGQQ
Experimental: as §3

[6] = target: T5, RUVBL2 (bacterially-expressed, purified recombinant) (UniProt Q9Y230 1-463, limits assumed); test: purified proteins co-incubated for 8 or 24 hours, TEL2 IP, western blot for RUVBL2 (FIG. 2C)
T5 construct: Used as a specificity control, a protein not part of mTORC3
T5 sequence (Q9Y230 whole entry): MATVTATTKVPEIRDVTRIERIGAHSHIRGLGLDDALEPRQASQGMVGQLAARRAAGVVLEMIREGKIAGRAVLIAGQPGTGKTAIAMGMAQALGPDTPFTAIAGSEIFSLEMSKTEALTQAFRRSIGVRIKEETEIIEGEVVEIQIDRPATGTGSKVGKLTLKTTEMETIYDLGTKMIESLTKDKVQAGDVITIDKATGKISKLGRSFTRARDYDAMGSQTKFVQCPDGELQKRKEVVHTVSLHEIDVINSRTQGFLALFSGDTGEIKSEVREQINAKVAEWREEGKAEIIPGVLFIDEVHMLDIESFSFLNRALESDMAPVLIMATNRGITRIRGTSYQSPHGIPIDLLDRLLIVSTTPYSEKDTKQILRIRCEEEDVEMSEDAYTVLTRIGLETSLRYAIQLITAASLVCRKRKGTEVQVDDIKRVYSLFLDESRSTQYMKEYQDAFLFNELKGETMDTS

[7] = target: Rictor of mouse Arf-/- pre-B cells (mouse, UniProt Q6QI06 1-1708); test: TEL2 IP / western blot, whole cell lysates of mouse Arf-/- pre-B cells expressing TEL2 (FIG. 2A)
Sequence of Rictor of mouse Arf-/- pre-B cells (Q6QI06 whole entry): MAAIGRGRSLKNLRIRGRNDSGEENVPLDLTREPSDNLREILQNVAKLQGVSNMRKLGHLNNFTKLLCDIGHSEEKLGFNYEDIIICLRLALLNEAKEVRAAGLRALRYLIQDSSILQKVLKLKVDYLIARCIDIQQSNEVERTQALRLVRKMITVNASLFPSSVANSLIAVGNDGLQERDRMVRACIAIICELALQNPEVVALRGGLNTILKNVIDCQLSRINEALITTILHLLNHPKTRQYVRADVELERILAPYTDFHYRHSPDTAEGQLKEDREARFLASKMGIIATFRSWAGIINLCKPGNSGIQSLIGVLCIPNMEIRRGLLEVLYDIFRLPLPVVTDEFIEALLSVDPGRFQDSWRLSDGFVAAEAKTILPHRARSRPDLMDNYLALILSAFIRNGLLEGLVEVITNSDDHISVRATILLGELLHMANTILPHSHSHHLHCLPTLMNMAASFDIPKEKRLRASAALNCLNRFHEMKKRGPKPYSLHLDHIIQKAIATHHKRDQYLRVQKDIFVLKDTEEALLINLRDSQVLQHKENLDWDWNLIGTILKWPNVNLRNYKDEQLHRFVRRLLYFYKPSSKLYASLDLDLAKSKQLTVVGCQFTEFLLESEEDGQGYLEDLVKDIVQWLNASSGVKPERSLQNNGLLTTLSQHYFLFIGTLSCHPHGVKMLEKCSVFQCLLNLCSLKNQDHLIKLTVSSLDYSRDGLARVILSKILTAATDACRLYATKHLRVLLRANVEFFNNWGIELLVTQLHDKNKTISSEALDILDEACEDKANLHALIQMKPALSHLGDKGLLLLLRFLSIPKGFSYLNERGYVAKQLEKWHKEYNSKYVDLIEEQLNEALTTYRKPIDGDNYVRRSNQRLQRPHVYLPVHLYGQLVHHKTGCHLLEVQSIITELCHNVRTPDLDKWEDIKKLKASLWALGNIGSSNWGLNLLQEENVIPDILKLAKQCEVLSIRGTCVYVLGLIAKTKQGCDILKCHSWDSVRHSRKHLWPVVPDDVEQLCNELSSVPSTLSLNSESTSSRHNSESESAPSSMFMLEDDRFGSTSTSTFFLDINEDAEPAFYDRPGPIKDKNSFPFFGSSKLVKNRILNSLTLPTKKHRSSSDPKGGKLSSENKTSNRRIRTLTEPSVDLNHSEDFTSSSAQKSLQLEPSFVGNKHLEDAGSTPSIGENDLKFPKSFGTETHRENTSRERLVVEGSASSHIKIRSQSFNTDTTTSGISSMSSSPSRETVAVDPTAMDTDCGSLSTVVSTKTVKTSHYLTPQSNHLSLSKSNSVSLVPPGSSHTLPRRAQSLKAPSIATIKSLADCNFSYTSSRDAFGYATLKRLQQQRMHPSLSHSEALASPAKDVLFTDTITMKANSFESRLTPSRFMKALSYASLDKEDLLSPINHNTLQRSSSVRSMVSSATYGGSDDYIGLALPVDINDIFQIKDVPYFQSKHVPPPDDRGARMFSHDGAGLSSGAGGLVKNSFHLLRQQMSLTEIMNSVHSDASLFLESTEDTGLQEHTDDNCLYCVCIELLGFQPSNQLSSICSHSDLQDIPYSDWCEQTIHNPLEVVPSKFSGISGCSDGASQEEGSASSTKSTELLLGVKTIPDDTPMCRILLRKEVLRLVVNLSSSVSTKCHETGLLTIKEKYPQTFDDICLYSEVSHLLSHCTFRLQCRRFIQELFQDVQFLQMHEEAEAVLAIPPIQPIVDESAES
Experimental: as §3

[8] = target: T6, SIN1 of mouse Arf-/- pre-B cells (mouse, UniProt Q8BKH7 2-522, limits assumed); test: as above
T6 construct: also called mSIN1
T6 sequence (Q8BKH7 2-522 limits assumed): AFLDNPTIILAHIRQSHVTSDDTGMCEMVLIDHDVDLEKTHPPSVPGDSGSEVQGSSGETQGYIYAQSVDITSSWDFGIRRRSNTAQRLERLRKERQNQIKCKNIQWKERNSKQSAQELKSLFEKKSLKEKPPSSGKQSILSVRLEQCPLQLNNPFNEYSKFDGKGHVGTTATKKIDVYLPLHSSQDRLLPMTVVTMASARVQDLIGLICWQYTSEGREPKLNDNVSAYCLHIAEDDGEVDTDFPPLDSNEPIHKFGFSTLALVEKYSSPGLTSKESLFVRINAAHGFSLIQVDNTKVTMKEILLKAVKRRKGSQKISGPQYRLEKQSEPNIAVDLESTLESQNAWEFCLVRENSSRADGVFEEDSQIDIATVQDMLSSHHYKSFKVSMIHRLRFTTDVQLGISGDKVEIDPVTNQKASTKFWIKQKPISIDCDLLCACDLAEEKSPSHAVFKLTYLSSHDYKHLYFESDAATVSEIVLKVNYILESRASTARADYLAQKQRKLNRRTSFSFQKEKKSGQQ
Experimental: as §3

[9] = target: T7, Rictor (human cell lines) (human, UniProt Q6R327 1-1708); test: TEL2 IP / western blot of cytoplasmic, membrane and nuclear fractions of Karpas-299 cells (FIG. 3A)
T7 construct: mTORC2 component
Experimental: Nuclear, cytoplasmic and membrane fractions of Karpas-299 cells were subjected to IP-Western blotting to determine the cellular location of mTORC3.
as §3

Question: `COc1ccc(-c2ccc3c(N4CCOC[C@@H]4C)nc(N4CCOC[C@@H]4C)nc3n2)cc1CO` [AZD-8055] was tested. Which “Proliferation of Karpas-299 cells” value (Karpas-299 cells) did it give?
Answer: The value was “completely inhibited proliferation”.

Question: And the “Drug concentration that completely inhibited proliferation” value [1]?
Answer: The value was greater than 100 ng/mL.

Question: And the “Concentration giving complete loss of 4E-BP1 Thr37/46, P70S6K Thr389 and AKT Ser473 phosphorylation, coinciding with loss of cell proliferation” value ([2]; Karpas-299)?
Answer: The value was 100 ng/mL.

Question: And the “Phosphorylation of AKT Thr308” value ([2]; Karpas-299)?
Answer: The value was “remained stable”.

Question: And the “Autophagy salvage pathway (relative amounts of LC3BI/II)” value ([2]; Karpas-299, 100 ng/ml)?
Answer: The value was “activated”.

Question: What about the “Ki-67 antigen (transition to G0 phase)” value ([2]; Karpas-299, 100 ng/ml) of the same molecule?
Answer: The value was “loss of the Ki-67 antigen”.

Question: What about the “mTORC3 signaling / kinase activity in cultured cells” value [2] of the same molecule?
Answer: The value was “sensitive; also recorded: fully inhibited”.

Question: What about the Autophagy salvage pathway ([3]; TEL2-expressing pre-B cells) of the same molecule?
Answer: The Autophagy salvage pathway was “did not induce the autophagy salvage pathway”.

Question: And the Cell survival ([3]; TEL2-expressing pre-B cells after complete loss of mTOR signaling)?
Answer: Its Cell survival is “died rapidly”.

Question: And the “p-Akt Ser473, p-S6 Ser235/236, p-4E-BP1 Thr37/46 phosphorylation and KI-67 antigen” value ([3]; TEL2-expressing pre-B cells, >100 ng/ml)?
Answer: Its value is “loss of p-Akt^Ser473, p-S6^Ser235/236, p-4E-BP1^Thr37/46 phosphorylation and loss of the KI-67 antigen”.

Question: `COc1cccc2cc(-c3nc([C@H]4CC[C@H](C(=O)O)CC4)n4ncnc(N)c34)[nH]c12` [OSI-27] was tested. Which “4E-BP1 phosphorylation (kinase activity) by TEL2 IP” value (mTORC3) did it give?
Answer: Its value is “reduced 4E-BP1 phosphorylation to levels comparable with IPs using control IgG”.

Question: What about the “4E-BP1 phosphorylation (kinase activity) by mTOR IP” value (mTOR) of the same molecule?
Answer: Its value is “reduced 4E-BP1 phosphorylation to levels comparable with IPs using control IgG”.

Question: What about the “Proliferation of Karpas-299 cells” value (Karpas-299 cells) of the same molecule?
Answer: The value was “completely inhibited proliferation”.

Question: And the “mTORC3 signaling / kinase activity in cultured cells” value [2]?
Answer: Its value is “sensitive; also recorded: fully inhibited”.

Question: How did the “Drug concentration at which cells stopped proliferating” value [4] turn out when `CO[C@H]1C[C@@H]2CC[C@@H](C)[C@@](O)(O2)C(=O)C(=O)N2CCCC[C@H]2C(=O)O[C@H]([C@H](C)C[C@@H]2CC[C@@H](O)[C@H](OC)C2)CC(=O)[C@H](C)/C=C(\C)[C@@H](O)[C@@H](OC)C(=O)[C@H](C)C[C@H](C)/C=C/C=C/C=C/1C` [Rapamycin] was run?
Answer: The value was greater than 0.3 ng/mL.

Question: What about the “Concentration causing marked reduction of p-AKT Ser473 phosphorylation” value ([2]; Karpas-299) of the same molecule?
Answer: The value was greater than 0.3 ng/mL.

B1: TEL2 (translocation Ets leukemia 2 / Ets variant gene 7) (other)
chain: MQEGELAISPISPVAAMPPLGTHVQARCEAQINLLGEGGICKLPGRLRIQPALWSREDVLHWLRWAEQEYSLPCTAEHGFEMNGRALCILTKDDFRHRAPSSGDVLYELLQYIKTQRRALVCGPFFGGIFRLKTPTQHSPVPPEEVTGPSQMDTRRGHLLQPPDPGLTSNFGHLDDPGLARWTPGKEESLNLCHCAELGCRTQGVCSFPAMPQAPIDGRIADCRLLWDYVYQLLLDTRYEPYIKWEDKDAKIFRVVDPNGLARLWGNHKNRVNMTYEKMSRALRHYYKLNIIKKEPGQKLLFRFLKTPGKMVQDKHSHLEPLESQEQDRIEFKDKRPEISP
notes: Endogenous in the human cell lines and xenografts; Exogenous (MSCV-TEL2-IRES-GFP) in mouse Arf-/- pre-B cells; Purified from transfected HEK 293T cells for the in vitro association; also called TEL2/ETV7; ETV7
Question: Does B1 bind [5]?
Answer: Result: no binding

Question: Does B1 bind (SIN1 (human cell lines))?
Answer: Result: no binding

Question: Does B1 bind [6]?
Answer: Result: no binding

Question: Does B1 bind [7]?
Answer: Result: no binding

Question: Does B1 bind [8]?
Answer: Result: no binding

Question: Does B1 bind [9]?
Answer: Result: no binding
